# Measured values taken from US9636021B2, “Flavonoid compounds of low toxicity for biological imaging applications” (The University of Akron, priority 2014, dated 2017).
# Experiments:
# zebrafish embryos = experiment: toxicity to labeled zebrafish embryos; format: in vivo, zebrafish (Danio rerio); conditions: morphology and size vs non-labeled control embryos
# From the text: (§1) The stable and biocompatible staining property of CDCO enables a long-term visualization method for tracking the development and migration of the YSL.
# [1] = tested on: yolk syncytial layer (YSL) of zebrafish embryos; experiment: fluorescence staining of zebrafish embryos and larvae; format: in vivo, zebrafish (Danio rerio)
# Experimental: Zebrafish embryos at 16 hours post fertilization (hpf) were initially used to study the CDCO's stain ability. A developing zebrafish body is normally covered by chorion and enveloping layer (EVL), which prevent dye molecules permeating into the fish body. In this example, 0.2% DMSO with 10 μM CDCO was infused to the E3 medium to decrease the barrier function of the zebra fish chorion without damaging the fish embryos' structural integrity. […] Thus, it is believed that CDCO selectively stained the YSL region.
# To investigate the location of CDCO labeling, zebra fish embryos at nine representative stages of early development were incubated with 10 μM CDCO for 30 minutes at 28.5° C., respectively (FIGS. 3-8). The YSL is initially generated by the collapse/fusion of marginal blastomeres with the yolk cell, and then a thin ring of YSL nuclei forms in front of blastoderm margin at high stage.
# The YSL structure can persist on the edge of yolk cell until larval stages. […] This YSL-imaging method can selectively stain the YSL structure from its initial formation, to the dynamic epiboly, and finally to the disappearance of YSL, thus representing a promising tracking agent for zebrafish embryonic development studies.
# Wild-type zebrafish embryos were collected and maintained as described in The Zebrafish Book by Monte Westerfield, which is incorporated herein by reference. Zebrafish were kept at 28.5° C. and maintained in E3 embryo medium (15 mM NaCl, 0.5 mM KCl, 1 mM MgSO4, 1 mM CaCl2, 0.15 mM KH2PO4, 0.05 mM Na2HPO4, 0.7 mM NaHCO3, 10^−5% methylene blue; pH 7.5).
# For the example represented by FIGS. 1 and 2, 10 μL CDCO stock solution (5 mmol/L CDCO in DMSO) was added into 5 mL E3 medium, then 16 hpf zebra fish embryos were gently transferred to this medium (solution) and incubated at 28.5° C. for 30 min. The dyes which stick to the chorion of the embryos were washed away with E3 medium before imaging by fluorescence microscopy.
# For the example represented by FIGS. 3-8, the zebra fish embryos at 2.5 hpf, 4.5 hpf, 6.5 hpf, 7.5 hpf, 8.5 hpf, 11.5 hpf and 16.5 hpf were separately handled following the same procedure.
# For the example represented by FIG. 22, the staining time required was 1 hour, since the CDCO was more difficult to penetrate through the older fish skin. Before imaging, the zebrafish were treated with tricaine (anesthetic 0.03%).
# All the zebrafish were imaged using fluorescent microscopy (Axio. Vert with X-Cite Series 120Q). The blue-CH filter: excitation 365 nm, beam splitter FT 395 nm, emission 445/50 nm. The green-CH filter: excitation 450-490 nm, beam splitter FT 510 nm, emission 515-565 nm. The red-CH filter: excitation 587/25 nm, beam splitter FT 605 nm, and emission 647/70 nm.)
# zebrafish vitellogenin = experiment: interaction between CDCO and zebrafish vitellogenin; format: binding
# Experimental: ^1H NMR and ^13C NMR spectra were obtained using an AVANCE II apparatus from Bruker Corporation (Billerica, Mass.). UV-vis spectra were acquired on an 8453 diode-array spectrometer from Hewlett-Packard (Palo Alto, Calif.). Fluorescence spectra were measured by RF-5301 PC spectrometer from Shimadzu Corporation (Kyoto, Japan). Electrospray ionization (ESI) mass spectra were acquired with a Synapt HDMS quadrupole/time-of-flight (Q/ToF) mass spectrometer from Waters Corporation (Milford, Mass.). All the solvents for the fluorescence experiments were analytic grade, which were purchased from Fisher Scientific (Waltham, Mass.) and used without further purification. Bovine serum albumin was purchased from Sigma Aldrich (St. Louis, Mo.). Zebrafish vitellogenin standard was purchased from Cayman Europe Biosense Laboratories (No. V01008301). The fluorescence imaging was obtained by X-Cite™ Series 120Q fluorescence microscope from Lumen Dynamics. For the blue channel filter: excitation 365 nm, beam splitter FT 395 nm, emission 445/50 nm. For the green channel filter: excitation 450-490 nm, beam splitter FT 510 nm, emission 515-565 nm. For the red channel filter: excitation 587/25 nm, beam splitter FT 605 nm, emission 647/70 nm.
# Zebrafish embryos at 16 hours post fertilization (hpf) were initially used to study the CDCO's stain ability. […]
# [2] = tested on: yolk syncytial layer (YSL) of zebrafish embryos; experiment: fluorescence stability and leakage of CDCO in zebrafish embryos; format: in vivo, zebrafish (Danio rerio); conditions: 5 hpf and 18 hpf embryos, 10 μM 30 min, washed, 1 hour in E3 medium
# Experimental: Stability is one of the most important criteria for developing fluorescent imaging agents for living organisms, especially for tracking highly dynamic structures like the YSL.
# as §1
# For the example represented by FIGS. 9-12, the 4.5 hpf and 17.5 hpf zebrafish embryos were firstly incubated in an E3 medium containing 10 μM CDCO and 0.2% DMSO for 0.5 h, then were washed with E3 medium, followed by incubating in the E3 medium for 1 hour.
# [3] = biological target: T1, bovin serum albumin (BSA) (Bos taurus, UniProt P02769); experiment: interaction between CDCO and BSA (absorption, fluorescence, warfarin displacement); format: binding, bovine
# T1 construct: purchased Sigma Aldrich (St. Louis, Mo.)
# T1 sequence (P02769 25-607): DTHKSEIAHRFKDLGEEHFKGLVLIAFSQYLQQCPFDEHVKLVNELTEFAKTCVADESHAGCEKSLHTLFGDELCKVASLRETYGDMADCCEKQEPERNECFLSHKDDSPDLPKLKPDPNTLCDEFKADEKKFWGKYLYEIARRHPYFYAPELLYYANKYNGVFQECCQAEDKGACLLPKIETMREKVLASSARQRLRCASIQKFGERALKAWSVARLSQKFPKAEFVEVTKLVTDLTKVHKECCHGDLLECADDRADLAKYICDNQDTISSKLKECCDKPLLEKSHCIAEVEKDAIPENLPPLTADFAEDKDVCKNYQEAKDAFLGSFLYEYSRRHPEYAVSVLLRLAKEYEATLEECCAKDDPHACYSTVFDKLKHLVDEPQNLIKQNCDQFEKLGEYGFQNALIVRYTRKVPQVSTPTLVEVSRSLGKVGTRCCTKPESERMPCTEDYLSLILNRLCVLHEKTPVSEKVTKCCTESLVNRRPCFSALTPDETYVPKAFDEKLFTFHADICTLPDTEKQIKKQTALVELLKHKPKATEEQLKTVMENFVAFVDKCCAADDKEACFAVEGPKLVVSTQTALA
# From the text: The bovin serum albumin (BSA) as the common protein model was used to investigate the interaction between CDCO and proteins. After addition of one equivalent of BSA, the absorption peak at 385 nm was shifted to 402 nm. With the excitation at 400 nm, the fluorescence intensity of CDCO was enhanced about 2-fold, which was accompanied with a large blue-shift (by about 60 nm) from 560 nm to 500 nm. […] However, when the sample was excited at 570 nm, a red/near-infrared fluorescence peak was detected at 700 nm. In order to determine the location of CDCO on BSA, the displacement of CDCO was carried out by addition of warfarin, which is known to strongly bind to the warfarin binding site in Domain II A of BSA. […] It is believed that the emission at 750 nm might be related to the complicated charge and energy transfer inside dye-BSA complex.
# [4] = absorbance and fluorescence spectra in DMSO; format: physicochemical
# From the text: The absorbance and fluorescence spectra of compounds 1-6 in dimethyl sulfoxide (DMSO) were investigated and the results are in Table 1.
# [5] = biological target: bovine serum albumin (BSA) (Bos taurus, UniProt P02769); experiment: fluorescence turn-on with BSA in PBS buffer; format: binding; conditions: for detection limit (10% increase in fluorescence emission) / visual recognizable detection limit (S/N above 3:1): BSA; for F(+)/F(−) fluorescence intensity with BSA / without BSA: BSA 1.0 mg/ml; for F(+)/F(−) fluorescence intensity with BSA / without BSA / λabs(+) / λem(+) / λabs(−) / λem(−): 10 μM dye; for λabs(+) / λem(+): with BSA 1.0 mg/ml; for λabs(−) / λem(−): without BSA
# Chain of bovine serum albumin (BSA) (P02769 25-607): as above
# Experimental: In the aqueous buffer (0.5% DMSO, 10 mM of PBS, pH=7.4), the BSA binding-induced fluorescence turn-on was so large that it could be easily seen by naked eye. […] The intramolecular charge transfer along the D-A conjugated backbone plays a very important role in the environment-sensitivity of the flavone. All the evidence consistently pointed to the flavone dye entering the hydrophobic site of BSA.
# Generally, the detection limit can be defined as the analyte concentration at which a 10% increase in fluorescence emission can be measured.
# Therefore, the detection limits of compounds 1-6 were 2.6, 0.14, 0.59, 0.09, 14, and 3.4 μg/mL, respectively. For Off/On type fluorescent sensor, the Signal-to-Noise (S/N) ratio above 3:1 is considered reliable for visual evaluation. The visual recognizable detection limits of compounds 1-6 were calculated as 78, 4.2, 17.7, 2.7, 420, and 102 μg/mL, respectively. The reference range for serum albumin concentration in human blood plasma is approximately 35-50 mg/mL. Even in fish, the concentration of serum albumins can reach 0.5-5 mg/mL. The detection limits of the compounds were much lower than serum albumin concentration, indicating the capability for actual blood sample testing.
# [6] = fluorescence quenching by water; format: physicochemical
# From the text: Upon excitation via photon irradiation, the dipole moment increased dramatically because of the charge transfer from D-A structure in compound 1. An increase in the solvent polarity could relax the excited molecules more efficiently, thus decreasing the energy of the excited state of fluorophore and resulting in a red-shifted emission. […] The fluorescence of compound 1 was nearly 100% quenched by water due to intermolecular electron or proton transfer. Non-fluorescence in water raises the possibility of eliminating the washing process in the protein detection procedure, since the free dye molecules gives negligible background signal in water.
# [7] = tested on: BSA, human serum albumin (HSA); experiment: wash-free staining of proteins in SDS-PAGE gel; format: binding; conditions: BSA, HSA vs fibrinogen, lysozyme, trypsin, 10 μg
# Experimental: (§2) FIG. 20 provides fluorescence images of several proteins in electrophoresis gel stained by compound 4 before and after washing 1. BSA at 0.1 μg; 2. BSA at 1 μg; 3. BSA at 10 μg; 4. BSA at 100 μg; 5. HSA at 10 μg; 6. Fibrinogen at 10 μg; 7. Lysozyme at 10 μg; 8. Trypsin at 10 μg;
# (§3) Various proteins were run on the 1-D SDS-PAGE minigels with running buffer (25 mM Tris, 192 mM glycine, 0.1% SDS pH 8.3) under 100 volts for 1.5 hrs. The minigels were then placed in the dye solution (10 mM of compound 4, 0.3% SDS, and AcOH/DMSO/H2O=5:10:85). […] Therefore, the discovered protein-staining reagent had the following advantages: (1) low interference of SDS to fluorescence, thereby eliminating the pretreatment; (2) very weak fluorescent in water and gels to eliminate the need for the washing process; (3) strong interaction with the proteins (serum albumin) to reduce the staining time; (4) a high signal-to-noise (S/N) ratio for the high contrast ratio of images.
# [8] = biological target: BSA, human serum albumin (HSA) (Bos taurus, UniProt P02769); experiment: wash-free staining of proteins in SDS-PAGE gel; format: binding; conditions: 2 hours staining, 10 mM dye, 0.3% SDS, no washing
# Chain of BSA, human serum albumin (HSA) (Bos taurus, UniProt P02769) (P02769 25-607): as above
# Experimental: as §2, §3
# [9] = tested on: serum albumin in monkey serum; experiment: fluorescence response to monkey serum; format: binding; conditions: 10 μM in 1 mL PBS
# Experimental: FIG. 18 provides a chart of fluorescence spectra changes and of compound 4 (10 μM, in 1 mL of PBS buffer solution) upon addition of different volume of monkey serum;
# FIG. 19 provides a chart of fluorescent intensities (λ=505 nm) of compound 4 (10 μM, in 1 mL of PBS buffer solution) upon addition of different volume of monkey serum;
# Serum albumin is known as the most abundant protein in blood serum. The probe's fluorescence response to serum albumin in real blood samples would be considered as an ideal sensing tool. In this example, 10 μM of compound 4 was dissolved in 1 mL of PBS buffer as a test solution. […] The detection limit (S/N>3) for monkey serum was calculated as 0.03 μL.
# [10] = embryos at early development stages, 10 μM, 30 minutes, 28.5° C.
smiles,measurement,setting,value
"CN(C)c1ccc(-c2oc3ccccc3c(=O)c2OCc2ccc(CCl)cc2)cc1 [CDCO, 3-(4-(chloromethyl)benzyloxy)-2-(4-(dimethylamino)phenyl)-4H-chromen-4-one]",toxicity to labeled embryos,zebrafish embryos,almost no apparent toxicity
same,staining of 16 hpf zebrafish embryos,"[1]; 10 μM, 0.2% DMSO in E3 medium, 30 minutes",stained specifically the yolk-related region in the embryos
same,localisation of dye during embryo development,[1]; [10],consistently confined to the YSL without significant leakage to the blastoderm
same,staining of the yolk cell,[1]; [10],barely stained
same,fluorescent labeling of 36 hpf embryos,[1]; incubated 1 hour,strong red fluorescence as well as blue and green emission in the yolk region
same,fluorescent labeling of 7 days old larval zebrafish,"[1]; incubated 1 hour, YSL completely absorbed",almost no red fluorescence was observed
same,red fluorescence with zebrafish vitellogenin,zebrafish vitellogenin,almost no red fluorescence
same,fluorescence leakage after washing,[2],no significant fluorescence leakage to blastoderm or somite
same,effect of warfarin on red fluorescence,[3]; 5-fold excess of warfarin,did not completely quench the red fluorescence
same,emission after warfarin displacement,[3]; 5-fold excess of warfarin,750 nm
same,absorption peak,[3]; after addition of one equivalent of BSA,402 nm
same,absorption peak,[3]; before addition of BSA,385 nm
same,fluorescence emission,"[3]; excitation 400 nm, before BSA",560 nm
same,blue-shift in fluorescence,"[3]; excitation 400 nm, on addition of BSA",about 60 nm
same,fluorescence emission,"[3]; excitation 400 nm, with one equivalent of BSA",500 nm
same,fluorescence intensity enhancement,"[3]; one equivalent of BSA, excitation at 400 nm",about 2 fold
same,red/near-infrared fluorescence peak,"[3]; with BSA, excited at 570 nm",700 nm
"CN(C)c1ccc(-c2oc3ccccc3c(=O)c2O)cc1 [compound 1, 2-(4-(dimethylamino)phenyl)-3-hydroxy-4H-chromen-4-one]",Φ,[4],10.0%
same,λabs,[4],403 nm
same,detection limit (10% increase in fluorescence emission),[5],2.6 µg/mL
same,visual recognizable detection limit (S/N above 3:1),[5],78 µg/mL
same,F(+)/F(−) fluorescence intensity with BSA / without BSA,"[5]; 10 mM PBS, 0.5% DMSO, pH 7.4",38
same,λabs(+),"[5]; 10 mM PBS, 0.5% DMSO, pH 7.4",416 nm
same,λem(+),"[5]; 10 mM PBS, 0.5% DMSO, pH 7.4",556 nm
same,λabs(−),"[5]; 10 mM PBS, 0.5% DMSO, pH 7.4",403 nm
same,λem(−),"[5]; 10 mM PBS, 0.5% DMSO, pH 7.4",560 nm
same,fluorescence quenched by water,[6],~100%
"COc1c(-c2ccc(N(C)C)cc2)oc2ccc(C)cc2c1=O [compound 4, 2-(4-(dimethylamino)phenyl)-3-methoxy-6-methyl-4H-chromen-4-one]",Φ,[4],37.6%
same,λabs,[4],390 nm
same,λem,[4],504 nm
same,detection limit (10% increase in fluorescence emission),[5],0.09 µg/mL
same,visual recognizable detection limit (S/N above 3:1),[5],2.7 µg/mL
same,F(+)/F(−) fluorescence intensity with BSA / without BSA,"[5]; 10 mM PBS, 0.5% DMSO, pH 7.4",1100
same,fluorescence in the absence of BSA,"[5]; aqueous buffer, 0.5% DMSO, 10 mM PBS, pH 7.4",almost no fluorescence
same,λabs(+),"[5]; 10 mM PBS, 0.5% DMSO, pH 7.4",398 nm
same,λem(+),"[5]; 10 mM PBS, 0.5% DMSO, pH 7.4",484 nm
same,λabs(−),"[5]; 10 mM PBS, 0.5% DMSO, pH 7.4",398 nm
same,λem(−),"[5]; 10 mM PBS, 0.5% DMSO, pH 7.4",490 nm
same,selectivity of protein staining in gel,[7],serum albumin proteins were selectively stained
same,amount of BSA clearly observed in gel under a UV lamp,[8],~1 µg
same,detection limit (S/N>3) for monkey serum,[9],0.03 µL
same,fluorescence intensity enhancement at 505 nm,[9]; 25 μL of serum sample,135 fold
